Series [1] concerns Calpain in crude brain extracts. The series can be described thus: Ca2+-stimulated spectrin proteolysis in crude brain extracts (Example 2). The series is classed as biochemical. As to conditions: for inhibition of spectrin proteolysis in crude brain extracts: 100 μM. A digest of the protocol: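 Brain tissue was homogenized in 10 mM Tris pH 7.4, 0.32 M sucrose, 1 mM EGTA and 1 mM DTT, and nuclei and debris were removed. Calpain activity was scored as Ca^2+-stimulated proteolysis of endogenous spectrin.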

Series [2] deals with Calpain within platelets. The series is described as follows: Platelet membrane permeation assay, spectrin proteolysis (Examples 4A, 4B). Type of series: cell-based, rat. To be noted: for inhibition of Calpain within platelets: 100 μM, A23187 1 μM; for pIC50: concentration at which 50% of the Calpain activation present in controls occurred. A digest of the protocol: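 Rat (Sprague-Dawley) platelets at 10^7 cells/ml in HEPES buffer pH 7.4, preincubated 5 min with inhibitor, then 5 min with 1 μM A23187 to activate calpain. Spectrin proteolysis assessed by SDS-PAGE and anti-spectrin immunoblot, quantified by densitometry.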

For series [3], the target named is T1, calpain II from rabbit muscle (Oryctolagus cuniculus, UniProt P06814).
T1 sequence (P06814 1-422): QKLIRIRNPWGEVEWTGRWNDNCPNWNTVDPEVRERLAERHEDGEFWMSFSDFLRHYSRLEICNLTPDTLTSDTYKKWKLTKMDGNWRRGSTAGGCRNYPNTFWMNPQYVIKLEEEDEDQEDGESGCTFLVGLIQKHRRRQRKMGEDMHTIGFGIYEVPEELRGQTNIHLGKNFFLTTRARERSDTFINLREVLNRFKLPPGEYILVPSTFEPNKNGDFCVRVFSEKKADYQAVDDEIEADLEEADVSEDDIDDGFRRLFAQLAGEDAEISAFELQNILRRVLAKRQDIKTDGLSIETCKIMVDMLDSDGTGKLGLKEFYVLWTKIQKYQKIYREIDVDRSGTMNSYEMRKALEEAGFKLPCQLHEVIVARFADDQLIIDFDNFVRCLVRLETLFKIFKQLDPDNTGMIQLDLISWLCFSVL
T1 sequence (P06813 1-266 partner): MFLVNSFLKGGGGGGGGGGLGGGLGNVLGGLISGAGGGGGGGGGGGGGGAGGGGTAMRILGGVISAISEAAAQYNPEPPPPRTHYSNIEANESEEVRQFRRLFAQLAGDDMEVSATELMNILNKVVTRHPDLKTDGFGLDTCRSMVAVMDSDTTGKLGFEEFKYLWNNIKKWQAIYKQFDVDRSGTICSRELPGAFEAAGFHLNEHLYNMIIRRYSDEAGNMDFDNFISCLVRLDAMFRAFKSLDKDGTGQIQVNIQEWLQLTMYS
The series is described as follows: Calpain II Ki (Table 1B(i)). Type of series: biochemical. As for the experimental part:
The Peptide Keto-Compounds are reversible inhibitors of Calpains and other thiol proteases. […] Cathepsin B from bovine spleen was assayed using Z-[…]-nitrophenylphosphate as substrate. […] The Ki value for the inhibition of Calpains and cathepsin B by several Peptide Keto-Compounds are shown in μM (micromolar). The values for leupeptin, which is commercially available from Calbiochem of La Jolla, Calif., are shown for comparison.

The nature of series [4]: Stability in plasma. To be noted: unit assumed. The series is classed as in vitro ADME. The text has this: We determined the haft-life of several Peptide Keto-Compounds in both plasma and liver homogenates.
The target in series [5] is Cathepsin B (Bos taurus, UniProt P07688). The series is described as follows: Cathepsin B KI (Table 1B(ii)). Type of series: biochemical. As to conditions: read-out: KI CathB. The text has this:
(§1) We tested the ability of an additional group of Peptide Keto-Compounds to inhibit several proteases in order to evaluate their specificity for Calpain.

The target of series [6] is T2, Papain (Carica papaya, UniProt P00784).
T2 sequence (P00784 134-345): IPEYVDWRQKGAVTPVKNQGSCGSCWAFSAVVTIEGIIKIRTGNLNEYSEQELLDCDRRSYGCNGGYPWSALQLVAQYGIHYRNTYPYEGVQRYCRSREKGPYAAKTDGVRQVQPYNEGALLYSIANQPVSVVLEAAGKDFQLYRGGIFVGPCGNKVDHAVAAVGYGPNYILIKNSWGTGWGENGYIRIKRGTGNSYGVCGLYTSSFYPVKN
The series is described as follows: Papain KI (Table 1B(ii)). The series is classed as biochemical.
From the text: as §1

The mark [7] stands for this setting: Suc-Leu-Tyr-amidomethylcoumarin, HEPES pH 7.2, read-out: Ki Calpain II.

pIC50, pKi: −log10 of the molar value. “Also recorded” adds a separate entry of the source. Like-named read-outs stand apart in the source and are kept apart here. Where a SMILES comes first, the peptide text is derived from it. The star is where a group is joined. Boc = CC(C)(C)OC(=O)*; CH2Cl = ClC*

With `CCC(NC(=O)[C@@H]1CCCN1C(=O)[C@H](C)NC(=O)[C@H](C)NC(=O)CCC(=O)OC)C(=O)C(=O)OC` (mixture of isomers) [MeO-Suc-Ala-Ala-Pro-Abu-COOMe, MeO-Suc-Ala-Ala-Pro-DL-Abu-CO2 Me], in series [1], the “inhibition of spectrin proteolysis in crude brain extracts” value (“inhibition of spectrin proteolysis” below) is “significant inhibition”. The “inhibition of Calpain within platelets” value in series [2] was “significant inhibition”.

On to `CCOC(=O)C(=O)C(CC)NC(=O)[C@H](C)NC(=O)[C@H](C)NC(=O)OCc1ccccc1` (mixture of isomers) [Z-Ala-Ala-DL-Abu-COOEt, Z-Ala-Ala-DL-Abu-CO2 Et], for which the pKi (as a rule, the Ki on a negative log10 scale, so that one unit is a factor of ten) in series [3] (setting [7]) is 3.70. Moreover, the “inhibition of spectrin proteolysis” value in series [1] is recorded as “significant inhibition”. Also, the “inhibition of Calpain within platelets” value in series [2] was “significant inhibition”.

In the case of `CCOC(=O)C(=O)[C@H](CC)NC(=O)[C@H](CC(C)C)NC(=O)OCc1ccccc1` (racemic) [Z-Leu-Abu-COOEt, Z-Leu-DL-Abu-COOEt], the results for the pKi in series [3] (setting [7]), in series [5] and in series [6] were 6.40, 4.52 and 3.66, respectively. Moreover, the t1/2 plasma in series [4] worked out at 2.8 min. For the same molecule, in series [1], the “inhibition of spectrin proteolysis” value was “significant inhibition”. The “inhibition of Calpain within platelets” value in series [2] is “significant inhibition”. Besides, the pIC50 (in general, the negative decadic logarithm of the IC50, by convention in mol/L) in series [2] was 4.38.

With `CCCC(NC(=O)[C@H](CC(C)C)NC(=O)OCc1ccccc1)C(=O)C(=O)OCC` (mixture of isomers) [Z-Leu-Nva-COOEt, Z-Leu-DL-Nva-COOEt], the pKi in series [3] (setting [7]) is 5.92; in series [5] it was 4.60; in series [6], 3.82. Moreover, the t1/2 plasma in series [4] worked out at 2.8 min. Besides, in series [1], the “inhibition of spectrin proteolysis” value is listed as “significant inhibition”. Also, the “inhibition of Calpain within platelets” value in series [2] is reported as “significant inhibition”. In series [2], this molecule gave a pIC50 of 4.40.

With `CC(C)CC(NC(=O)CNC(=O)OC(C)(C)C)C(=O)NC(Cc1ccccc1)C(=O)CCl` (stereo not drawn) [Boc-Gly-Leu-Phe-CH2 Cl] (Boc-Gly-Leu-Phe-CH2Cl; configuration not given here), in series [1], the “inhibition of spectrin proteolysis” value is “significant inhibition”. The “inhibition of Calpain within platelets” value in series [2] was “significant inhibition”.

`N=C(N)SCCCOc1oc(=O)c2ccccc2c1Cl` [CiTprOIC, 4-chloro-3-(3-isothiureidopropoxy)isocoumarin]: in series [1], the “inhibition of spectrin proteolysis” value is listed as “significant inhibition”. The “inhibition of Calpain within platelets” value in series [2] is on record as “significant inhibition”.

In the case of `CC(=O)N[C@@H](CC(C)C)C(=O)N[C@@H](CC(C)C)C(=O)N[C@H](C=O)CCCNC(=N)N` [Leupeptin, Ac-Leu-Leu-Arg-H, reference compound], in series [3], the pKi was 6.37. For the same molecule, in series [1] (concentration not given), the “inhibition in the system of Example 2” value is on record as “showed inhibition”. Also, in series [2] (concentration not given), the “effect on intracellular (platelet) Calpain” value is recorded as “little effect; also recorded: failed to exhibit Calpain inhibitory activity”.

Turning to `N=C(N)SCCCOc1oc(=O)c2cc(N)ccc2c1Cl` [NH2 -CiTPrOIC (ACITIC), 7-amino-4-chloro-3-(3-isothiureidopropoxy)isocoumarin], the “inhibition of spectrin proteolysis” value in series [1] is on record as “significant inhibition”. Besides, the “inhibition of Calpain within platelets” value in series [2] is given as “significant inhibition”.

Turning to `CCCCC(NC(=O)C(CC(C)C)NC(=O)OCc1ccccc1)C(=O)C(=O)OCC` (stereo not drawn) [Z-Leu-Nle-COOEt, Z-Leu-NLeu-CO2 Et], the values for the pKi in series [3] (setting [7]), in series [5] and in series [6] were 6.74, 4.70 and 3.72, respectively. Moreover, the t1/2 plasma in series [4] came out at 3.7 min. For the same molecule, the “inhibition of spectrin proteolysis” value in series [1] is recorded as “significant inhibition”. The “inhibition of Calpain within platelets” value in series [2] is “significant inhibition”. Further, the pIC50 in series [2] was 4.70.

For `CCOC(=O)C(=O)C(Cc1ccccc1)NC(=O)C(CC(C)C)NC(=O)OCc1ccccc1` (stereo not drawn) [Z-Leu-Phe-COOEt], the pKi is 6.40 in series [3] (setting [7]), 3.47 in series [5] and 4.12 in series [6]. For the same molecule, the t1/2 plasma in series [4] was determined as 7.8 min. The “inhibition of spectrin proteolysis” value in series [1] is recorded as “significant inhibition”. The “inhibition of Calpain within platelets” value in series [2] is given as “significant inhibition”. Further, the pIC50 in series [2] is 4.38.

Values taken from US5444042A, “Method of treatment of neurodegeneration with calpain inhibitors” (Cortex Pharmaceuticals, priority 1994, dated 1995).
